Test system: human cardiac fibroblasts (HCFs)
Experiment: Human cardiac fibroblasts stimulated with Ang II: α-SMA and collagen expression
Assay type: cell-based
Conditions: HCFs + Ang II 0.1 μM, HFI-419 0.01 to 1 μM, approx. 72 hours; FIG. 26
Experimental: Commercially available human cardiac fibroblasts (HCF, Catalog #6300, Sciencell, CA, USA) were grown in T75 flask maintained in an incubator at 37° C., 5% CO2. Complete media composition: M199 media (#11150-059, life technologies)+10% FBS (#10437-028, life technologies)+1% Fibroblast Growth Supplement-2 (#2382, ScienCell)+1% penicillin/streptomycin 10,000 U/ml antibiotics (#15140-122, Life Technologies). Fresh complete media was replenished every alternate day until culture reached 70% confluence in which media is replenished daily until it reached approximately 90% confluence in order to passage/subculture. To subculture, media was discarded and culture was rinsed with warm PBS. After which, culture was detached using warm 0.05% Trypsin+EDTA with gentle swirling of flask to make sure cells were not adherent to surface of flask. Trypsin was then neutralized with complete media and suspension was then transferred into a new falcon tube and centrifuged at 1000 rpm for 5 minutes. […]
Once treatment is complete, cells were washed with warm PBS and detached using Accutase (A6964, Sigma), with 5 minutes incubation at 37° C. […] The supernatant (˜20 ul) was transferred to a new tube and protein concentrations were measured using Biorad Lowry protein assay. Protein quantification of respective markers were performed via standard western blot analysis. […]

## CCOC(=O)C1=C(NC(C)=O)Oc2cc(O)ccc2C1c1cccnc1 (centres unmarked) [HFI-419]
  collagen production in human cardiac fibroblasts: dose-dependently decreased
  myofibroblast expression (α-SMA) in human cardiac fibroblasts: dose-dependently decreased

Source: US11834663B2, “Fibrotic treatment” (Monash University, priority 2015, dated 2023)
